SMILES strings stand for the structures.

Broadly, the IC50 is the midpoint of a concentration-inhibition curve. High values mean a need for much substance, low ones inhibition by little substance. A word on the inhibition: it is how much of the control response was suppressed. Lower therefore signals a response near the control.

For the first assay, the target named is human SGLT1 (Homo sapiens (Human), UniProt P13866). Description: SGLT1 inhibitory activity: 14C-AMG uptake into CHO-K1 cell line stably expressing human SGLT1. In kind it is cell-based. The conditions noted are these: 14C-AMG uptake, CHO-K1 cells expressing human SGLT1. In short, it runs like this: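 Human SGLT1 was stably expressed in CHO-K1 cells. Cells were first held 20 min in sodium-free buffer, then exposed to compound in Na(+)/BSA buffer with tracer and AMG (2 mM in the added solution).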
Sequence of human SGLT1 (P13866 whole entry): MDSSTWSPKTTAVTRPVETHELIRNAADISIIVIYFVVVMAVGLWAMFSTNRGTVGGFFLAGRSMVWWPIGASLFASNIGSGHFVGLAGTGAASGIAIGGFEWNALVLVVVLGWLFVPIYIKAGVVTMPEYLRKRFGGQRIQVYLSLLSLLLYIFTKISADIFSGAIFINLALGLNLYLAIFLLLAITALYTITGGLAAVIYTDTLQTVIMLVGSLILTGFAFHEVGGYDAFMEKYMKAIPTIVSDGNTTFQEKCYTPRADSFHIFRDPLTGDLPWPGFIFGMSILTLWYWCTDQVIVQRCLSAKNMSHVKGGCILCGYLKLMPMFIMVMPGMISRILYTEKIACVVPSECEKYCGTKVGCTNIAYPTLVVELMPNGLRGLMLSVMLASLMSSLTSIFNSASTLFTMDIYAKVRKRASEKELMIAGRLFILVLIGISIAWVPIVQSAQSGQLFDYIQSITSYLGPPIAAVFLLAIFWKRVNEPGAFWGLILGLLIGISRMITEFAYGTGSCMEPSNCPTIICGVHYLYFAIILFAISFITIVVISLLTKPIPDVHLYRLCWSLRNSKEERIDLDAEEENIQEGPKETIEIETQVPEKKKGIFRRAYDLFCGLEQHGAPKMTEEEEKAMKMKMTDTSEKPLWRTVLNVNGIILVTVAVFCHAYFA
Consider `C[C@H]1C(=O)NC[C@@H]1C(=O)Nc1cc(-c2cccc(OC(F)(F)F)c2)n(CCC(F)(F)F)n1` [Example 191], for which the midpoint of inhibition, the IC50, lay at 54 nM.

Take `C[C@H]1C(=O)NC[C@@H]1C(=O)Nc1cc(-c2cccc(OC(F)(F)F)c2)n(-c2ccccc2Cl)n1` [Example 193]: it took 1.3 nM to reach half-maximal inhibition (IC50). The same measure, in the same setting: under `C[C@H]1C(=O)NC[C@@H]1C(=O)Nc1cc(-c2cccc(C(C)(C)C)c2)n(-c2ccccc2Cl)n1` [Example 194] stands 0.7 nM; under `Cc1cc(F)ccc1-n1nc(NC(=O)[C@H]2CNC(=O)C2)cc1-c1cccc(OC(F)(F)F)c1` [Example 195], 8.3 nM.

`Cc1cc(F)ccc1-n1nc(NC(=O)[C@H]2CNC(=O)[C@@H]2C)cc1-c1cccc(OC(F)(F)F)c1` [Example 196] had an IC50 of 4.8 nM. On the same count and under the same terms, for `O=C1C[C@@H](C(=O)Nc2cc(-c3cccc(OC(F)(F)F)c3)n(C3CCC(F)(F)CC3)n2)CN1` [Example 197] the value was 180 nM. Take `C[C@H]1C(=O)NC[C@@H]1C(=O)Nc1cc(-c2cccc(OC(F)(F)F)c2)n(C2CCC(F)(F)CC2)n1` [Example 198]: the IC50 turned out to be 67 nM. Still for that read-out and setting: under `C[C@H]1C(=O)NC[C@@H]1C(=O)Nc1cc(-c2cccc(OC(F)(F)F)c2)n(CC2CCOCC2)n1` [Example 200] stands 120 nM. On the same count and under the same terms, under `O=C1C[C@@H](C(=O)Nc2cc(-c3cccc(OC(F)(F)F)c3)n(CCC3CCOCC3)n2)CN1` [Example 201] stands 93 nM; under `C[C@H]1C(=O)NC[C@@H]1C(=O)Nc1cc(-c2cccc(C(F)(F)F)c2)n(-c2ccc(F)cc2)n1` [Example 202], 12 nM; under `C[C@H]1C(=O)NC[C@@H]1C(=O)Nc1cc(-c2cccc(C(F)(F)F)c2)n(-c2ccccc2Cl)n1` [Example 203], 1.4 nM. Still for that read-out and setting: for `O=C1C[C@@H](C(=O)Nc2cc(-c3cccc(C(F)(F)F)c3)n(-c3ccc(F)cc3)n2)CN1` [Example 204] the value was 18 nM; for `O=C1C[C@@H](C(=O)Nc2cc(-c3cccc(C(F)(F)F)c3)n(-c3ccccc3Cl)n2)CN1` [Example 205], 3.6 nM. Compound `O=C1C[C@@H](C(=O)Nc2cc(-c3cccc(OCC(F)(F)F)c3)n(-c3cccc(F)c3)n2)CN1` [Example 206] yielded an IC50 of 4.8 nM. Compound `C[C@H]1C(=O)NC[C@@H]1C(=O)Nc1cc(-c2cccc(C(F)(F)F)c2)n(-c2ccccc2)n1` [Example 207] had an IC50 of 4.7 nM. Same read-out and setting: under `CCC(F)(F)c1cccc(-c2cc(NC(=O)[C@H]3CNC(=O)[C@@H]3C)nn2-c2ccccc2Cl)c1` [Example 208] stands 1.3 nM; under `C[C@H]1C(=O)NC[C@@H]1C(=O)Nc1cc(-c2cccc(C(F)(F)F)c2)n(-c2cccc(F)c2)n1` [Example 209], 9.2 nM. Same read-out and setting: under `C[C@H]1C(=O)NC[C@@H]1C(=O)Nc1cc(-c2cccc(OCC(F)(F)F)c2)n(-c2ccccc2)n1` [Example 210] stands 5.9 nM. Same read-out and setting: for `O=C1C[C@@H](C(=O)Nc2cc(-c3cccc(OCC(F)(F)F)c3)n(-c3ccc(F)cc3)n2)CN1` [Example 211] the value was 17 nM. Compound `C[C@H]1C(=O)NC[C@@H]1C(=O)Nc1cc(-c2cccc(OCC(F)(F)F)c2)n(-c2ccc(F)cc2)n1` [Example 212] returned an IC50 of 5.8 nM. Same read-out and setting: for `O=C1C[C@@H](C(=O)Nc2cc(-c3cccc(C(F)(F)F)c3)n(-c3cccc(F)c3)n2)CN1` [Example 213] the value was 14 nM; for `O=C1C[C@@H](C(=O)Nc2cc(-c3cccc(OCC(F)(F)F)c3)n(-c3ccccc3Cl)n2)CN1` [Example 214], 2.3 nM.

On to `C[C@H]1C(=O)NC[C@@H]1C(=O)Nc1cc(-c2cccc(OCC(F)(F)F)c2)n(-c2ccccc2Cl)n1` [Example 215], for which the IC50 was 1.4 nM. Still for that read-out and setting: for `Cc1ccc(-n2nc(NC(=O)[C@H]3CNC(=O)C3)cc2-c2cccc(OCC(F)(F)F)c2)cc1` [Example 216] the value was 8.7 nM; for `Cc1ccc(-n2nc(NC(=O)[C@H]3CNC(=O)[C@@H]3C)cc2-c2cccc(OCC(F)(F)F)c2)cc1` [Example 217], 6.2 nM. Same read-out and setting: under `C[C@H]1C(=O)NC[C@@H]1C(=O)Nc1cc(-c2cccc(OCC(F)(F)F)c2)n(-c2cccc(F)c2)n1` [Example 222] stands 4.1 nM.

Regarding `Cc1ccccc1-n1nc(NC(=O)[C@H]2CNC(=O)[C@@H]2C)cc1-c1cccc(OC(F)(F)F)c1` [Example 223], half-maximal inhibition (IC50) was put at 2.3 nM.

Turning to `Cc1ccccc1-n1nc(NC(=O)[C@H]2CNC(=O)C2)cc1-c1cccc(C(F)(F)F)c1` [Example 224], the IC50 is 6.3 nM. Consider `Cc1ccccc1-n1nc(NC(=O)[C@H]2CNC(=O)[C@@H]2C)cc1-c1cccc(C(F)(F)F)c1` [Example 225], for which the IC50 is 3.9 nM. Still for that read-out and setting: for `Cc1ccccc1-n1nc(NC(=O)[C@H]2CNC(=O)C2)cc1-c1cccc(OCC(F)(F)F)c1` [Example 226] the value was 3.3 nM; for `Cc1ccccc1-n1nc(NC(=O)[C@H]2CNC(=O)[C@@H]2C)cc1-c1cccc(OCC(F)(F)F)c1` [Example 227], 2.1 nM; for `O=C1C[C@@H](C(=O)Nc2cc(-c3cccc(C(F)(F)F)c3)n(-c3ccccc3F)n2)CN1` [Example 228], 8.6 nM.

`C[C@H]1C(=O)NC[C@@H]1C(=O)Nc1cc(-c2cccc(C(F)(F)F)c2)n(-c2ccccc2F)n1` [Example 229] displayed an IC50 of 3.1 nM. On the same count and under the same terms, for `Cc1ccc(-n2nc(NC(=O)[C@H]3CNC(=O)C3)cc2-c2cccc(C(F)(F)F)c2)cc1` [Example 230] the value was 12 nM.

For the compound `Cc1ccc(-n2nc(NC(=O)[C@H]3CNC(=O)[C@@H]3C)cc2-c2cccc(C(F)(F)F)c2)cc1` [Example 231], the IC50 is 6.7 nM. The same measure, in the same setting: under `C[C@H]1C(=O)NC[C@@H]1C(=O)Nc1cc(-c2cccc(OC(F)(F)F)c2)n(CCC2CCOCC2)n1` [Example 232] stands 32 nM; under `Cc1ccc(-n2nc(NC(=O)[C@H]3CNC(=O)C3)cc2-c2cccc(OC(F)(F)F)c2)cc1` [Example 233], 20 nM; under `Cc1ccc(-n2nc(NC(=O)[C@H]3CNC(=O)[C@@H]3C)cc2-c2cccc(OC(F)(F)F)c2)cc1` [Example 234], 7.4 nM.

The assay is the same for the next values; noted with them: 14C-AMG uptake, CHO-K1 cells stably expressing human SGLT1.
For `C[C@@H](OCc1cc(F)cc(-c2cc(NC(=O)[C@@H]3CNC(=O)C3)nn2-c2ccccc2)c1)C(F)(F)F` [Example 235, (S)-5-oxopyrrolidine-3-carboxylic acid{5-[3-fluoro-5-((R)-2,2,2-trifluoro-1-methylethoxymethyl)phenyl]-1-phenyl-1H-pyrazol-3-yl}amide], the IC50 came out at 3.4 nM.

For `C[C@@H](OCc1cc(F)cc(-c2cc(NC(=O)[C@@H]3CNC(=O)C3)nn2-c2ccc(Cl)cc2)c1)C(F)(F)F` [Example 236, (S)-5-oxopyrrolidine-3-carboxylic acid{1-(4-chlorophenyl)-5-[3-fluoro-5-((R)-2,2,2-trifluoro-1-methylethoxymethyl)phenyl]-1H-pyrazol-3-yl}amide], the IC50 was found to be 5.35 nM. The compound `C[C@@H](OCc1cc(F)cc(-c2cc(NC(=O)[C@@H]3CNC(=O)C3)nn2-c2ccccc2F)c1)C(F)(F)F` [Example 237, (S)-5-oxopyrrolidine-3-carboxylic acid{1-(2-fluorophenyl)-5-[3-fluoro-5-((R)-2,2,2-trifluoro-1-methylethoxymethyl)phenyl]-1H-pyrazol-3-yl}amide] registered an IC50 of 3.85 nM. On the same count and under the same terms, for `C[C@@H](OCc1cccc(-c2cc(NC(=O)[C@@H]3CNC(=O)C3)nn2-c2ccc(F)cc2)c1)C(F)(F)F` [Example 238, (S)-5-oxopyrrolidine-3-carboxylic acid{1-(4-fluorophenyl)-5-[3-((R)-2,2,2-trifluoro-1-methylethoxymethyl)phenyl]-1H-pyrazol-3-yl}amide] the value was 7.9 nM. Still for that read-out and setting: for `C[C@@H](OCc1cc(F)cc(-c2cc(NC(=O)[C@@H]3CNC(=O)C3)nn2-c2ccc(F)cc2)c1)C(F)(F)F` [Example 239, (S)-5-oxopyrrolidine-3-carboxylic acid{1-(4-fluorophenyl)-5-[3-fluoro-5-((R)-2,2,2-trifluoro-1-methylethoxymethyl)phenyl]-1H-pyrazol-3-yl}amide] the value was 7 nM; for `C[C@@H](OCc1cc(F)cc(-c2cc(NC(=O)[C@H]3CNC(=O)N3)nn2-c2ccc(F)cc2)c1)C(F)(F)F` [Example 240, (R)-2-oxoimidazolidine-4-carboxylic acid{1-(4-fluorophenyl)-5-[3-fluoro-5-((R)-2,2,2-trifluoro-1-methylethoxymethyl)phenyl]-1H-pyrazol-3-yl}amide], 20 nM.

On to `C[C@@H](OCc1cc(Cl)cc(-c2cc(NC(=O)[C@@H]3CNC(=O)C3)nn2-c2ccccc2)c1)C(F)(F)F` [Example 241, (S)-5-oxopyrrolidine-3-carboxylic acid{5-[3-chloro-5-((R)-2,2,2-trifluoro-1-methylethoxymethyl)phenyl]-1-phenyl-1H-pyrazol-3-yl}amide], for which half-maximal inhibition (IC50) was put at 9.95 nM.

Still in this assay, the particulars now being: CHO-K1, at 0.1 uM.
`C[C@@H]1C[C@@H](n2nc(NC(=O)[C@H]3CNC(=O)C3)cc2-c2cccc(OC(F)(F)F)c2)C[C@H](C)O1` [Example 218]: at 0.1 µM the inhibition was 26%. Compound `C[C@@H]1C[C@H](n2nc(NC(=O)[C@H]3CNC(=O)C3)cc2-c2cccc(OC(F)(F)F)c2)C[C@H](C)O1` [Example 219] registered an inhibition at 0.1 µM of 20%.

On to `C[C@@H]1C[C@@H](n2nc(NC(=O)[C@H]3CNC(=O)[C@@H]3C)cc2-c2cccc(OC(F)(F)F)c2)C[C@H](C)O1` [Example 220], for which testing at 0.1 µM gave an inhibition of 16%. Same read-out and setting: for `C[C@@H]1C[C@H](n2nc(NC(=O)[C@H]3CNC(=O)[C@@H]3C)cc2-c2cccc(OC(F)(F)F)c2)C[C@H](C)O1` [Example 221] the value was 15%.

The same assay, now with this note: CHO-K1, at 0.3 uM.
As for `O=C1C[C@@H](C(=O)Nc2cc(-c3cccc(OC(F)(F)F)c3)n(-c3ccc(F)cc3Cl)n2)CN1` [Example 192], the inhibition at 0.3 µM amounted to 6%. On the same count and under the same terms, for `O=C1C[C@@H](C(=O)Nc2cc(-c3cccc(OC(F)(F)F)c3)n(CC3CCOCC3)n2)CN1` [Example 199] the value was 40%.

Source of the values: patent publication US8846746B2, “Pyrazole compound and pharmaceutical use thereof” (Japan Tobacco Inc., priority 2011, dated 2014).
